From PMC11007962, “First-in-human study of GFH018, a small molecule inhibitor of transforming growth factor-β receptor I inhibitor, in patients with advanced solid tumors” (BMC Cancer, 2024)
Marks after values point to notes of the source that are not given here.

Assays:
[1] = system: TGF-β-induced SMAD3 phosphorylation; design: method as in doi:10.1158/1538-7445.AM2019-3072; conditions: preclinical; cited from earlier work
advanced solid tumors = assay: Clinical efficacy: tumor response per RECIST 1.1; assay type: in vivo, human
Method: The endpoints for efficacy, including the objective response rate (ORR), disease control rate (DCR), progression-free survival (PFS), and time to progression (TTP), were assessed per RECIST 1.1. Tumor response was evaluated every two treatment cycles until disease progression, start of a new antitumor treatment, consent withdrawal, loss to follow-up, or study termination for other reasons.

pSMAD3 = system: pSMAD3; design: method as in preclinical studies (reference not given); conditions: mouse H22 models, ref preclinical studies (reference not given), cited from earlier work
[2] = 5 mg BID 14d-on/14d-off (N = 4)
[3] = 10 mg BID 14d-on/14d-off (N = 3)
[4] = 20 mg BID 14d-on/14d-off (N = 4)
[5] = 30 mg BID 14d-on/14d-off (N = 7)
[6] = 40 mg BID 14d-on/14d-off (N = 4)
[7] = 50 mg BID 14d-on/14d-off (N = 4)
[8] = 65 mg BID 14d-on/14d-off (N = 6)
[9] = 85 mg BID 14d-on/14d-off (N = 12)

In the case of Cc1cccc(-c2nn3c(c2-c2ccc4ncnn4c2/C=C/C(N)=O)CCC3)n1 [GFH018], the “effect on TGF-β-induced SMAD3 phosphorylation” value [1] is given as “ability to inhibit TGF-β-induced SMAD3 phosphorylation”, the “BOR: CR” value (advanced solid tumors; [2]) is given as 0 n (%) and the “BOR: NA (no postbaseline assessments after the start date)” value (advanced solid tumors; [2]) is given as 2 (50.0%) n (%). For the same compound, the “BOR: NE (not estimable)” value (advanced solid tumors; [2]) was 0 n (%), the “BOR: Non-CR/Non-PD” value (advanced solid tumors; [2]) was 0 n (%) and the “BOR: PD” value (advanced solid tumors; [2]) was 2 (50.0%) n (%). For the same compound, the “BOR: PR” value (advanced solid tumors; [2]) was 0 n (%), the “BOR: SD” value (advanced solid tumors; [2]) was 0 n (%) and the “DCR (90%CI)” value (advanced solid tumors; [2]) was 0 n (%). The “ORR (90%CI)” value (advanced solid tumors; [2]) was 0 n (%), the “BOR: CR” value (advanced solid tumors; [3]) was 0 n (%) and the “BOR: NA (no postbaseline assessments after the start date)” value (advanced solid tumors; [3]) was 0 n (%). For the same compound, the “BOR: NE (not estimable)” value (advanced solid tumors; [3]) was 0 n (%), the “BOR: Non-CR/Non-PD” value (advanced solid tumors; [3]) was 0 n (%) and the “BOR: PD” value (advanced solid tumors; [3]) was 2 (66.7%) n (%). The “BOR: PR” value (advanced solid tumors; [3]) was 0 n (%), the “BOR: SD” value (advanced solid tumors; [3]) was 1 (33.3%) n (%) and the “DCR (90%CI)” value (advanced solid tumors; [3]) was 1 (33.3%) (0.84%, 90.57%) n (%). The “ORR (90%CI)” value (advanced solid tumors; [3]) was 0 n (%), the “BOR: CR” value (advanced solid tumors; [4]) was 0 n (%) and the “BOR: NA (no postbaseline assessments after the start date)” value (advanced solid tumors; [4]) was 1 (25.0%) n (%). The “BOR: Non-CR/Non-PD” value (advanced solid tumors; [4]) was 0 n (%), the “BOR: PD” value (advanced solid tumors; [4]) was 1 (25.0%) n (%) and the “BOR: PR” value (advanced solid tumors; [4]) was 0 n (%). For the same compound, the “BOR: SD” value (advanced solid tumors; [4]) was 1 (25.0%) n (%), the “DCR (90%CI)” value (advanced solid tumors; [4]) was 1 (25.0%) (0.63%, 80.59%) n (%) and the “ORR (90%CI)” value (advanced solid tumors; [4]) was 0 n (%). For the same compound, the “BOR: NE (not estimable)” value (advanced solid tumors; 20 mg BID 14d-on/14d-off (N = 4), SD of insufficient duration) was 1 (25.0%)^e n (%), the “BOR: CR” value (advanced solid tumors; [5]) was 0 n (%) and the “BOR: NA (no postbaseline assessments after the start date)” value (advanced solid tumors; [5]) was 3 (42.9%) n (%). The “BOR: NE (not estimable)” value (advanced solid tumors; [5]) was 0 n (%), the “BOR: Non-CR/Non-PD” value (advanced solid tumors; [5]) was 0 n (%) and the “BOR: PD” value (advanced solid tumors; [5]) was 3 (42.9%) n (%). The “BOR: PR” value (advanced solid tumors; [5]) was 0 n (%), the “BOR: SD” value (advanced solid tumors; [5]) was 1 (14.3%) n (%) and the “DCR (90%CI)” value (advanced solid tumors; [5]) was 1 (14.3%) (0.36%, 57.87%) n (%). For the same compound, the “ORR (90%CI)” value (advanced solid tumors; [5]) was 0 n (%), the “BOR: CR” value (advanced solid tumors; [6]) was 0 n (%) and the “BOR: NA (no postbaseline assessments after the start date)” value (advanced solid tumors; [6]) was 1 (25.0%) n (%). The “BOR: NE (not estimable)” value (advanced solid tumors; [6]) was 0 n (%), the “BOR: Non-CR/Non-PD” value (advanced solid tumors; [6]) was 0 n (%) and the “BOR: PD” value (advanced solid tumors; [6]) was 3 (75.0%) n (%). For the same compound, the “BOR: PR” value (advanced solid tumors; [6]) was 0 n (%), the “BOR: SD” value (advanced solid tumors; [6]) was 0 n (%) and the “DCR (90%CI)” value (advanced solid tumors; [6]) was 0 n (%). The “ORR (90%CI)” value (advanced solid tumors; [6]) was 0 n (%), the “BOR: CR” value (advanced solid tumors; [7]) was 0 n (%) and the “BOR: NA (no postbaseline assessments after the start date)” value (advanced solid tumors; [7]) was 2 (50.0%) n (%). For the same compound, the “BOR: NE (not estimable)” value (advanced solid tumors; [7]) was 0 n (%), the “BOR: Non-CR/Non-PD” value (advanced solid tumors; [7]) was 0 n (%) and the “BOR: PD” value (advanced solid tumors; [7]) was 1 (25.0%) n (%). The “BOR: PR” value (advanced solid tumors; [7]) was 0 n (%), the “BOR: SD” value (advanced solid tumors; [7]) was 1 (25.0%) n (%) and the “DCR (90%CI)” value (advanced solid tumors; [7]) was 1 (25.0%) (0.63%, 80.59%) n (%). The “ORR (90%CI)” value (advanced solid tumors; [7]) was 0 n (%), the “BOR: CR” value (advanced solid tumors; [8]) was 0 n (%) and the “BOR: NA (no postbaseline assessments after the start date)” value (advanced solid tumors; [8]) was 0 n (%). The “BOR: NE (not estimable)” value (advanced solid tumors; [8]) was 0 n (%), the “BOR: Non-CR/Non-PD” value (advanced solid tumors; [8]) was 0 n (%) and the “BOR: PD” value (advanced solid tumors; [8]) was 5 (83.3%) n (%). The “BOR: PR” value (advanced solid tumors; [8]) was 0 n (%), the “BOR: SD” value (advanced solid tumors; [8]) was 1 (16.7%) n (%) and the “DCR (90%CI)” value (advanced solid tumors; [8]) was 1 (16.7%) (0.42%, 64.12%) n (%). For the same compound, the “ORR (90%CI)” value (advanced solid tumors; [8]) was 0 n (%), the “BOR: CR” value (advanced solid tumors; 85 mg BID 7d-on/7d-off (N = 6)) was 0 n (%) and the “BOR: NA (no postbaseline assessments after the start date)” value (advanced solid tumors; 85 mg BID 7d-on/7d-off (N = 6)) was 3 (50.0%) n (%). For the same compound, the “BOR: NE (not estimable)” value (advanced solid tumors; 85 mg BID 7d-on/7d-off (N = 6)) was 0 n (%), the “BOR: Non-CR/Non-PD” value (advanced solid tumors; 85 mg BID 7d-on/7d-off (N = 6)) was 0 n (%) and the “BOR: PD” value (advanced solid tumors; 85 mg BID 7d-on/7d-off (N = 6)) was 2 (33.3%) n (%). The “BOR: PR” value (advanced solid tumors; 85 mg BID 7d-on/7d-off (N = 6)) was 0 n (%), the “BOR: SD” value (advanced solid tumors; 85 mg BID 7d-on/7d-off (N = 6)) was 1 (16.7%) n (%) and the “DCR (90%CI)” value (advanced solid tumors; 85 mg BID 7d-on/7d-off (N = 6)) was 1 (16.7%) (0.42%, 64.12%) n (%). The “ORR (90%CI)” value (advanced solid tumors; 85 mg BID 7d-on/7d-off (N = 6)) was 0 n (%), the “BOR: CR” value (advanced solid tumors; [9]) was 0 n (%) and the “BOR: NA (no postbaseline assessments after the start date)” value (advanced solid tumors; [9]) was 5 (41.7%) n (%). For the same compound, the “BOR: NE (not estimable)” value (advanced solid tumors; [9]) was 0 n (%), the “BOR: Non-CR/Non-PD” value (advanced solid tumors; [9]) was 0 n (%) and the “BOR: PD” value (advanced solid tumors; [9]) was 4 (33.3%) n (%). For the same compound, the “BOR: PR” value (advanced solid tumors; [9]) was 0 n (%), the “BOR: SD” value (advanced solid tumors; [9]) was 3 (25.0%) n (%) and the “DCR (90%CI)” value (advanced solid tumors; [9]) was 3 (25.0%) (5.49%, 57.19%) n (%). For the same compound, the “ORR (90%CI)” value (advanced solid tumors; [9]) was 0 n (%), the DCR (advanced solid tumors; 85 mg BID, 14 d-on/14 d-off, twelve patients) was 25.0% and the “median PFS” value (advanced solid tumors; 85 mg BID, 14 d-on/14 d-off, twelve patients, 90% CI, 0.82–3.75) was 1.8 months. The “complete response (CR) or partial response (PR)” value (advanced solid tumors; 50 enrolled patients, 33 with at least one tumor assessment) was “No complete response (CR) or partial response (PR) was observed”, the “BOR: CR” value (advanced solid tumors; Total (N = 50)) was 0 n (%) and the “BOR: NA (no postbaseline assessments after the start date)” value (advanced solid tumors; Total (N = 50)) was 17 (34.0%) n (%). The “BOR: Non-CR/Non-PD” value (advanced solid tumors; Total (N = 50)) was 0 n (%), the “BOR: PD” value (advanced solid tumors; Total (N = 50)) was 23 (46.0%) n (%) and the “BOR: PR” value (advanced solid tumors; Total (N = 50)) was 0 n (%). For the same compound, the “BOR: SD” value (advanced solid tumors; Total (N = 50)) was 9 (18.0%) n (%), the “DCR (90%CI)” value (advanced solid tumors; Total (N = 50)) was 9 (18.0%) (8.58%, 31.44%) n (%) and the “ORR (90%CI)” value (advanced solid tumors; Total (N = 50)) was 0 n (%). For the same compound, the “BOR: NE (not estimable)” value (advanced solid tumors; Total (N = 50), SD of insufficient duration) was 1 (2.0%)^e n (%), the “maximum target lesion decrease” value (advanced solid tumors; one patient with thymic carcinoma, 65 mg BID) was 18.4% and the “effective concentration (efficacy with approximately 50% inhibition of pSMAD3)” value (pSMAD3; after the 1-h dose) was 125 ng/ml. The “inhibition of pSMAD3 at which efficacy was observed” value (pSMAD3; at 125 ng/ml after the 1-h dose) was “approximately 50%”.
